In PubChem BioAssay (NCI):
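Protocol summary: plate cells (96-well), add compound at 5 concentrations, incubate 48 h, interpolate endpoints linearly. At the TGI there is no net growth.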

Key:
Experiment in all cases: growth of human tumour cells (NCI), 48 h
[1] = test system: 786-0 renal
[2] = test system: A498 renal
[3] = test system: A549 NSCLC
[4] = test system: ACHN renal
[5] = test system: BT-549 breast
[6] = test system: CAKI-1 renal
[7] = test system: CCRF-CEM leukemia
[8] = test system: COLO 205 colon
[9] = test system: DU-145 prostate
[10] = test system: EKVX NSCLC
[11] = test system: HCC-2998 colon
[12] = test system: HCT-116 colon
[13] = test system: HCT-15 colon
[14] = test system: HL-60(TB) leukemia
[15] = test system: HOP-62 NSCLC
[16] = test system: HS 578T breast
[17] = test system: HT29 colon
[18] = test system: IGROV1 ovarian
[19] = test system: K-562 leukemia
[20] = test system: KM12 colon
[21] = test system: M14 melanoma
[22] = test system: MALME-3M melanoma
[23] = test system: MCF7 breast
[24] = test system: MDA-MB-231 breast
[25] = test system: MDA-N
[26] = test system: MOLT-4 leukemia
[27] = test system: NCI-H226 lung
[28] = test system: NCI-H23 lung
[29] = test system: NCI-H460 lung
[30] = test system: NCI-H522 lung
[31] = test system: NCI/ADR-RES ovarian
[32] = test system: OVCAR-3 ovarian
[33] = test system: OVCAR-4 ovarian
[34] = test system: OVCAR-5 ovarian
[35] = test system: OVCAR-8 ovarian
[36] = test system: PC-3 prostate
[37] = test system: SF-268 CNS
[38] = test system: SF-295 CNS
[39] = test system: SF-539 CNS
[40] = test system: SK-MEL-2 melanoma
[41] = test system: SK-MEL-28 melanoma
[42] = test system: SK-MEL-5 melanoma
[43] = test system: SK-OV-3 ovarian
[44] = test system: SN12C renal
[45] = test system: SNB-19 CNS
[46] = test system: SNB-75 CNS
[47] = test system: SR leukemia
[48] = test system: SW-620 colon
[49] = test system: T-47D breast
[50] = test system: TK-10 renal
[51] = test system: U251 CNS
[52] = test system: UACC-257 melanoma
[53] = test system: UACC-62 melanoma
[54] = test system: UO-31 renal
[55] = test system: HOP-92 NSCLC
[56] = test system: LOX IMVI melanoma
[57] = test system: RPMI-8226 leukemia
[58] = test system: RXF 393 renal
[59] = test system: MDA-MB-435

Measured: TGI

COC(=O)Nc1nc2cc(OC)c(OC)cc2c(=O)[nH]1
6.51 µM: [30]
7.99 µM: [25]
37 µM: [38]
43.6 µM: [46]
71 µM: [36]
not listed: [55] | [56] | [57] | [58] | [59]
> 100 µM: all other assays above

c1ccc2c(c1)nc1n2CCCn2ccnc2-1
9.03 µM: [43]
0.597 µM: [14]
not listed: [6] | [7] | [11] | [50] | [52] | [59]
> 100 µM: all other assays above

CCCCc1c2c(nc3c1CCCC3O)CCCC2 (stereo not drawn)
not listed: [41] | [49] | [56]
> 100 µM: all other assays above
